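Grown in 96-well plates, cells were treated for 48 hours with each compound at five concentrations. Insufficient inhibition: endpoint recorded as highest concentration tested. TGI marks complete inhibition of growth.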
Legend:
Experiment in all cases: growth of human tumour cells (NCI), 48 h
M14 melanoma = system: M14 melanoma
A549 NSCLC = system: A549 NSCLC
KM12 colon = system: KM12 colon
U251 CNS = system: U251 CNS
NCI-H522 lung = system: NCI-H522 lung
MOLT-4 leukemia = system: MOLT-4 leukemia
OVCAR-3 ovarian = system: OVCAR-3 ovarian
SNB-75 CNS = system: SNB-75 CNS
IGROV1 ovarian = system: IGROV1 ovarian
HOP-62 NSCLC = system: HOP-62 NSCLC
SR leukemia = system: SR leukemia
HOP-92 NSCLC = system: HOP-92 NSCLC
786-0 renal = system: 786-0 renal
CAKI-1 renal = system: CAKI-1 renal
SN12C renal = system: SN12C renal
SK-MEL-2 melanoma = system: SK-MEL-2 melanoma
SK-OV-3 ovarian = system: SK-OV-3 ovarian
NCI-H23 lung = system: NCI-H23 lung
SF-268 CNS = system: SF-268 CNS
DU-145 prostate = system: DU-145 prostate
OVCAR-4 ovarian = system: OVCAR-4 ovarian
SW-620 colon = system: SW-620 colon
SNB-19 CNS = system: SNB-19 CNS
COLO 205 colon = system: COLO 205 colon
NCI-H226 lung = system: NCI-H226 lung
TK-10 renal = system: TK-10 renal
PC-3 prostate = system: PC-3 prostate
HT29 colon = system: HT29 colon
A498 renal = system: A498 renal
OVCAR-5 ovarian = system: OVCAR-5 ovarian
BT-549 breast = system: BT-549 breast
RPMI-8226 leukemia = system: RPMI-8226 leukemia
HS 578T breast = system: HS 578T breast
CCRF-CEM leukemia = system: CCRF-CEM leukemia
ACHN renal = system: ACHN renal
NCI/ADR-RES ovarian = system: NCI/ADR-RES ovarian
NCI-H460 lung = system: NCI-H460 lung
MCF7 breast = system: MCF7 breast
MALME-3M melanoma = system: MALME-3M melanoma
K-562 leukemia = system: K-562 leukemia
RXF 393 renal = system: RXF 393 renal
UO-31 renal = system: UO-31 renal
LOX IMVI melanoma = system: LOX IMVI melanoma
MDA-MB-435 = system: MDA-MB-435
MDA-N = system: MDA-N
SF-539 CNS = system: SF-539 CNS
UACC-62 melanoma = system: UACC-62 melanoma
HCT-116 colon = system: HCT-116 colon
SK-MEL-5 melanoma = system: SK-MEL-5 melanoma
T-47D breast = system: T-47D breast
SF-295 CNS = system: SF-295 CNS
SK-MEL-28 melanoma = system: SK-MEL-28 melanoma
HCT-15 colon = system: HCT-15 colon
EKVX NSCLC = system: EKVX NSCLC
HCC-2998 colon = system: HCC-2998 colon
UACC-257 melanoma = system: UACC-257 melanoma
MDA-MB-231 breast = system: MDA-MB-231 breast
OVCAR-8 ovarian = system: OVCAR-8 ovarian
HL-60(TB) leukemia = system: HL-60(TB) leukemia
LXFL 529 NSCLC = system: LXFL 529 NSCLC
SNB-78 CNS = system: SNB-78 CNS
KM20L2 colon = system: KM20L2 colon

Question: CC1=C(C(=O)Nc2ccccc2)C2(CCCCC2)C(C#N)=C(SCC(=O)Nc2ccc(Br)cc2)N1 was tested. Which TGI (M14 melanoma) did it give?
Answer: The TGI was 10.9 µM.

Question: What about the TGI (A549 NSCLC) of the same compound?
Answer: Its TGI is 22.3 µM.

Question: And the TGI (KM12 colon)?
Answer: The TGI was greater than 26 µM.

Question: And the TGI (U251 CNS)?
Answer: Its TGI is 15.3 µM.

Question: And the TGI (NCI-H522 lung)?
Answer: The TGI was 7.25 µM.

Question: And the TGI (MOLT-4 leukemia)?
Answer: The TGI was 9 µM.

Question: What about the TGI (OVCAR-3 ovarian) of the same compound?
Answer: Its TGI is 15 µM.

Question: And the TGI (SNB-75 CNS)?
Answer: The TGI was 30.3 µM.

Question: And the TGI (IGROV1 ovarian)?
Answer: The TGI was 14.6 µM.

Question: And the TGI (HOP-62 NSCLC)?
Answer: The TGI was 32.6 µM.

Question: And the TGI (SR leukemia)?
Answer: Its TGI is 6.11 µM.

Question: What about the TGI (HOP-92 NSCLC) of the same compound?
Answer: Its TGI is 8.44 µM.

Question: What about the TGI (786-0 renal) of the same compound?
Answer: Its TGI is 13.3 µM.

Question: What about the TGI (CAKI-1 renal) of the same compound?
Answer: Its TGI is 17.6 µM.

Question: What about the TGI (SN12C renal) of the same compound?
Answer: Its TGI is 16.6 µM.

Question: What about the TGI (SK-MEL-2 melanoma) of the same compound?
Answer: The TGI was 6.6 µM.

Question: And the TGI (SK-OV-3 ovarian)?
Answer: Its TGI is 44.5 µM.

Question: And the TGI (NCI-H23 lung)?
Answer: The TGI was 23.3 µM.

Question: What about the TGI (SF-268 CNS) of the same compound?
Answer: The TGI was 8.74 µM.

Question: What about the TGI (DU-145 prostate) of the same compound?
Answer: Its TGI is greater than 100 µM.

Question: What about the TGI (OVCAR-4 ovarian) of the same compound?
Answer: The TGI was greater than 75.2 µM.

Question: And the TGI (SW-620 colon)?
Answer: Its TGI is greater than 100 µM.

Question: What about the TGI (SNB-19 CNS) of the same compound?
Answer: Its TGI is greater than 32.7 µM.

Question: What about the TGI (COLO 205 colon) of the same compound?
Answer: Its TGI is 4.53 µM.

Question: And the TGI (NCI-H226 lung)?
Answer: The TGI was 23 µM.

Question: What about the TGI (TK-10 renal) of the same compound?
Answer: Its TGI is greater than 45.4 µM.

Question: What about the TGI (PC-3 prostate) of the same compound?
Answer: Its TGI is 7.96 µM.

Question: And the TGI (HT29 colon)?
Answer: Its TGI is 8.53 µM.

Question: And the TGI (A498 renal)?
Answer: Its TGI is 19.6 µM.

Question: What about the TGI (OVCAR-5 ovarian) of the same compound?
Answer: The TGI was 14.6 µM.

Question: And the TGI (BT-549 breast)?
Answer: The TGI was 33.4 µM.

Question: And the TGI (RPMI-8226 leukemia)?
Answer: Its TGI is 7.11 µM.

Question: What about the TGI (HS 578T breast) of the same compound?
Answer: The TGI was 44.9 µM.

Question: And the TGI (CCRF-CEM leukemia)?
Answer: The TGI was 7.02 µM.

Question: And the TGI (ACHN renal)?
Answer: Its TGI is 19.8 µM.

Question: And the TGI (NCI/ADR-RES ovarian)?
Answer: The TGI was 27.3 µM.

Question: And the TGI (NCI-H460 lung)?
Answer: Its TGI is 11.4 µM.

Question: What about the TGI (MCF7 breast) of the same compound?
Answer: The TGI was greater than 47.9 µM.

Question: What about the TGI (MALME-3M melanoma) of the same compound?
Answer: The TGI was 7.48 µM.

Question: What about the TGI (K-562 leukemia) of the same compound?
Answer: The TGI was 23 µM.

Question: What about the TGI (RXF 393 renal) of the same compound?
Answer: The TGI was 14.1 µM.

Question: And the TGI (UO-31 renal)?
Answer: The TGI was 2.76 µM.

Question: What about the TGI (LOX IMVI melanoma) of the same compound?
Answer: Its TGI is 9.96 µM.

Question: What about the TGI (MDA-MB-435) of the same compound?
Answer: Its TGI is 29.6 µM.

Question: What about the TGI (MDA-N) of the same compound?
Answer: Its TGI is 17.2 µM.

Question: And the TGI (SF-539 CNS)?
Answer: Its TGI is 32.9 µM.

Question: And the TGI (UACC-62 melanoma)?
Answer: The TGI was greater than 87.3 µM.

Question: And the TGI (HCT-116 colon)?
Answer: The TGI was 8.28 µM.

Question: And the TGI (SK-MEL-5 melanoma)?
Answer: Its TGI is 8.39 µM.

Question: What about the TGI (T-47D breast) of the same compound?
Answer: The TGI was 92.5 µM.

Question: And the TGI (SF-295 CNS)?
Answer: The TGI was 28.9 µM.

Question: And the TGI (SK-MEL-28 melanoma)?
Answer: The TGI was greater than 26.5 µM.

Question: What about the TGI (HCT-15 colon) of the same compound?
Answer: The TGI was 20.2 µM.

Question: And the TGI (EKVX NSCLC)?
Answer: Its TGI is 7.81 µM.

Question: What about the TGI (HCC-2998 colon) of the same compound?
Answer: Its TGI is 10.4 µM.

Question: What about the TGI (UACC-257 melanoma) of the same compound?
Answer: The TGI was greater than 43.4 µM.

Question: And the TGI (MDA-MB-231 breast)?
Answer: The TGI was 27.1 µM.

Question: What about the TGI (OVCAR-8 ovarian) of the same compound?
Answer: Its TGI is 34.9 µM.

Question: And the TGI (HL-60(TB) leukemia)?
Answer: Its TGI is 13.7 µM.

Question: Which TGI (A549 NSCLC) does the source give for O=C(Nc1ccc([N+](=O)[O-])cc1Cl)c1cccc([N+](=O)[O-])c1O here?
Answer: The TGI was 7.31 µM.

Question: And the TGI (KM12 colon)?
Answer: The TGI was 15.3 µM.

Question: And the TGI (U251 CNS)?
Answer: Its TGI is greater than 100 µM.

Question: What about the TGI (NCI-H522 lung) of the same compound?
Answer: The TGI was 4.32 µM.

Question: And the TGI (MOLT-4 leukemia)?
Answer: The TGI was 28.3 µM.

Question: And the TGI (LXFL 529 NSCLC)?
Answer: The TGI was 13.6 µM.

Question: And the TGI (SR leukemia)?
Answer: The TGI was 18.9 µM.

Question: What about the TGI (CAKI-1 renal) of the same compound?
Answer: Its TGI is 5.21 µM.

Question: What about the TGI (SN12C renal) of the same compound?
Answer: Its TGI is 8.09 µM.

Question: What about the TGI (SK-MEL-2 melanoma) of the same compound?
Answer: Its TGI is 6.1 µM.

Question: What about the TGI (NCI-H23 lung) of the same compound?
Answer: Its TGI is 4.01 µM.

Question: And the TGI (SF-268 CNS)?
Answer: The TGI was 27.3 µM.

Question: What about the TGI (OVCAR-4 ovarian) of the same compound?
Answer: Its TGI is 45.3 µM.

Question: What about the TGI (SW-620 colon) of the same compound?
Answer: Its TGI is greater than 100 µM.

Question: And the TGI (SNB-19 CNS)?
Answer: The TGI was greater than 100 µM.

Question: And the TGI (NCI-H226 lung)?
Answer: Its TGI is 9.31 µM.

Question: What about the TGI (HT29 colon) of the same compound?
Answer: The TGI was 79.7 µM.

Question: And the TGI (A498 renal)?
Answer: The TGI was 3.66 µM.

Question: What about the TGI (OVCAR-5 ovarian) of the same compound?
Answer: Its TGI is greater than 100 µM.

Question: What about the TGI (RPMI-8226 leukemia) of the same compound?
Answer: The TGI was 5.78 µM.

Question: And the TGI (SNB-78 CNS)?
Answer: Its TGI is 9.75 µM.

Question: And the TGI (CCRF-CEM leukemia)?
Answer: Its TGI is greater than 100 µM.

Question: What about the TGI (ACHN renal) of the same compound?
Answer: The TGI was 48.1 µM.

Question: And the TGI (NCI-H460 lung)?
Answer: The TGI was 13.3 µM.

Question: And the TGI (MALME-3M melanoma)?
Answer: Its TGI is 4.73 µM.

Question: What about the TGI (K-562 leukemia) of the same compound?
Answer: The TGI was 12.5 µM.

Question: And the TGI (UO-31 renal)?
Answer: The TGI was 5.58 µM.

Question: What about the TGI (LOX IMVI melanoma) of the same compound?
Answer: Its TGI is 14.5 µM.

Question: What about the TGI (SF-539 CNS) of the same compound?
Answer: The TGI was 10.9 µM.

Question: What about the TGI (KM20L2 colon) of the same compound?
Answer: Its TGI is 10.2 µM.

Question: What about the TGI (SF-295 CNS) of the same compound?
Answer: The TGI was 6.26 µM.

Question: And the TGI (SK-MEL-28 melanoma)?
Answer: Its TGI is 19.4 µM.

Question: What about the TGI (EKVX NSCLC) of the same compound?
Answer: The TGI was 6.54 µM.

Question: And the TGI (HCC-2998 colon)?
Answer: The TGI was 20.9 µM.

Question: What about the TGI (UACC-257 melanoma) of the same compound?
Answer: The TGI was 6.95 µM.

Question: What about the TGI (HL-60(TB) leukemia) of the same compound?
Answer: Its TGI is 5.43 µM.
